“Also recorded” adds a separate entry of the source.
Experiments:
Assay type in all cases: cell-based
[1] = test system: MOLM16 cells; assay: MTT assay (number of live cells), MOLM16 cells, single inhibitors and combination, Compusyn CI; conditions: 48 hours
Description: (§1) General experimental procedure: 10,000 (MOLM16) or 20,000 (EOL1) cells were seeded per well in 96-well plates. After culturing overnight, AZD1208 and/or Pladienolide B/SRPIN340 were added to wells in quadruplicates at 5 different concentrations. Different ratios between AZD1208 and Pladienolide B were tried in MOLM16 and EOL1 cells. At 48 hours the MTT metabolism indicative of number of live cells was measured by MTT assay (Promega, Cat: G4000). The resulting values were used to evaluate the Fa (fraction affected) values, which were plugged into the Compusyn software to calculate the combination indices (CI values) at ED50, ED75, ED90 and ED95 (ED—Effective dose of combination).
These values of drug dose and effect (fraction of cells affected by the treatment—FA values) were input into the Compusyn software to estimate the interaction between the two drugs.

[2] = test system: MCL1 splice variants; assay: Taqman qRT-PCR for MCL1 splice variants in MOLM16 cells; conditions: MOLM16, 20 μM, 24 hours
Description: Control=DMSO treated. […] Arrow indicate bands that change after AZD1208 treatment.
A few targets from the microarray data were chosen, that being, ones that were affected by PIM kinase inhibition. The procedure was manual curation of data, followed by reference seq analysis of splice variants to determine avalibilty of sequence information. Initially, changes in splice variants of a known apoptotic regulator, MCL1 were validated. The smaller isoform of MCL1 is pro-apototic, while the longer isoform has anti-apototic functions.

[3] = test system: SR protein phosphorylation; assay: Western blot using phospho-SR protein antibody; conditions: MOLM16 and EOL1 cells, versus DMSO treated controls
Description: MOLM16 and EOL1 cells were treated with AZD1208 or SRPIN340 for indicated concentration and time. Cells lysates from treated cells were used for western blot analysis.
Phosphorylation of splicing factors is known to play a role in regulation of splicing. Phosphorylation of splicing factors called serine arginine rich proteins (SR proteins) is known to regulate their function and localization. Serine arginine rich protein kinases (SRPK1 and SRPK2) phosphorylate these proteins and inhibition of SRPK activity using the small molecule modulator SRPIN340 leads to reduction in phosphorylation. The level of SR protein phosphorylation can be visualized using phospho-SR protein antibody. It was investigated to determine if PIM kinases regulate SRPK activity to indirectly lead to changes in splicing. […] Thus, it was concluded that the SRPK activity was not affected by PIM kinase inhibition.

[4] = test system: EOL1 cells; assay: MTT assay (number of live cells), EOL1 cells, single inhibitors and combination, Compusyn CI; conditions: for Effect (fraction of cells affected, FA): 48 hours
Description: as §1
To further confirm the finding in MOLM16 cells, it was tested whether the combination of AZD1208 and Pladienolide B is synergistic in another AML cell line—EOL1. Different ratios between AZD1208 and Pladienolide B were tested to identify the ideal ratio that provides maximum synergy.

O=C(Nc1cc(C(F)(F)F)ccc1N1CCCCC1)c1ccncc1 [SRPIN340, N-[2-(1-Piperidinyl)-5-(trifluoromethyl)phenyl]-4-pyridinecarboxamide]
Effect (fraction of cells affected, FA) ([1]; MOLM16, SRPIN340 testing Trial 1, 5 μM): 0.004 | Effect (fraction of cells affected, FA) ([1]; MOLM16, SRPIN340 testing Trial 1, 10 μM): 0.014 | Effect (fraction of cells affected, FA) ([1]; MOLM16, SRPIN340 testing Trial 1, 20 μM): 0.385 | changes in MCL1 splicing [2]: Changes in MCL1 splicing were not observed | SR protein phosphorylation [3]: reduction in phosphorylation signal; also recorded: phosphorylation of SR proteins changes

CCC(O)C(C)C1OC1CC(C)/C=C/C=C(\C)C1OC(=O)CC(O)CCC(C)(O)C(OC(C)=O)/C=C/C1C (stereo not drawn) [Pladienolide B, pladienolide B]
Effect (fraction of cells affected, FA) ([1]; MOLM16, Trial 1, 0.002 μM): 0.517 | Effect (fraction of cells affected, FA) ([1]; MOLM16, Trial 1, 0.004 μM): 0.599 | Effect (fraction of cells affected, FA) ([1]; MOLM16, Trial 1, 0.006 μM): 0.711 | Effect (fraction of cells affected, FA) ([1]; MOLM16, Trial 1, 0.008 μM): 0.726 | Effect (fraction of cells affected, FA) ([1]; MOLM16, Trial 1, 0.01 μM): 0.757 | Effect (fraction of cells affected, FA) ([1]; MOLM16, Trial 2, 0.002 μM): 0.487 | Effect (fraction of cells affected, FA) ([1]; MOLM16, Trial 2, 0.004 μM): 0.676 | Effect (fraction of cells affected, FA) ([1]; MOLM16, Trial 2, 0.006 μM): 0.752 | Effect (fraction of cells affected, FA) ([1]; MOLM16, Trial 2, 0.008 μM): 0.821 | Effect (fraction of cells affected, FA) ([1]; MOLM16, Trial 2, 0.01 μM): 0.862 | Effect (fraction of cells affected, FA) ([1]; MOLM16, Trial 3, 0.002 μM): 0.393 | Effect (fraction of cells affected, FA) ([1]; MOLM16, Trial 3, 0.004 μM): 0.607 | Effect (fraction of cells affected, FA) ([1]; MOLM16, Trial 3, 0.006 μM): 0.696 | Effect (fraction of cells affected, FA) ([1]; MOLM16, Trial 3, 0.008 μM): 0.749 | Effect (fraction of cells affected, FA) ([1]; MOLM16, Trial 3, 0.01 μM): 0.814 | relative sensitivity of the cells to the two drugs ([4]; EOL1, Trial 1): more sensitive to Pladienolide B than AZD1208 | Effect (fraction of cells affected, FA) ([4]; EOL1, Trial 1, 0.001 μM): 0.315 | Effect (fraction of cells affected, FA) ([4]; EOL1, Trial 1, 0.002 μM): 0.633 | Effect (fraction of cells affected, FA) ([4]; EOL1, Trial 1, 0.003 μM): 0.890 | Effect (fraction of cells affected, FA) ([4]; EOL1, Trial 1, 0.004 μM): 0.957 | Effect (fraction of cells affected, FA) ([4]; EOL1, Trial 1, 0.005 μM): 0.982 | Effect (fraction of cells affected, FA) ([4]; EOL1, Trial 2, 0.0005 μM): 0.060 | Effect (fraction of cells affected, FA) ([4]; EOL1, Trial 2, 0.001 μM): 0.351 | Effect (fraction of cells affected, FA) ([4]; EOL1, Trial 2, 0.0015 μM): 0.528 | Effect (fraction of cells affected, FA) ([4]; EOL1, Trial 2, 0.002 μM): 0.706 | Effect (fraction of cells affected, FA) ([4]; EOL1, Trial 2, 0.0025 μM): 0.820 | Effect (fraction of cells affected, FA) ([4]; EOL1, Trial 3, 0.0005 μM): 0.095 | Effect (fraction of cells affected, FA) ([4]; EOL1, Trial 3, 0.001 μM): 0.360 | Effect (fraction of cells affected, FA) ([4]; EOL1, Trial 3, 0.0015 μM): 0.542 | Effect (fraction of cells affected, FA) ([4]; EOL1, Trial 3, 0.002 μM): 0.667 | Effect (fraction of cells affected, FA) ([4]; EOL1, Trial 3, 0.0025 μM): 0.814
